Measurements from paper PMC5410297, “Sepia ink oligopeptide induces apoptosis and growth inhibition in human lung cancer cells” (Oncotarget, 2017).

Assays:
A549 cells = type: cell-based, human
Method: To quantitatively evaluate the corresponding cellular uptakes and average fluorescent intensity of linear SIO or stable SIO in human lung cancer cells, A549 cells were treated with PBS (as blank), FITC, stable SIO and linear SIO for 2 hours and then were analyzed by flow cytometry (Figure 5). […] Almost identical results were obtained from another lung cancer cell line H1299 (Figure 5D–5F). Therefore, the results were consistent with the cell fluorescent imaging analysis, which indicated stable SIO was much more appropriate to penetrate into cells.
Figure 5 Delivery efficiency of stable SIO or linear SIO in A549 or H1299 cells evaluated by flow cytometry (A and D) A549 or H1299 cells were treated with PBS (as blank), FITC (5 μM), linear SIO (5 μM) and stable SIO (5 μM) for 2 hours and the statistical count of cells were gathered by flow cytometry. […] Average fluorescence intensity presents the FITC intensity in the cells. […]
To test the delivery efficiency of stable SIO or linear SIO, A549 cells were cultured in the 6-well plates and were treated with PBS (as blank), FITC, stable FITC-SIO and linear FITC-SIO separately for […]. […] Samples were then analyzed by the FACSCalibur flow cytometer (Becton Dickinson). The cellular uptake and average fluorescent intensity were analyzed using Flowjo software.

A549 and H1299 cells = test: Anti-proliferative effect, MTT and CCK-8 assays; type: cell-based, human; conditions: A549 and H1299, MTT and CCK-8, 5 μM, n = 3
Method: Cell proliferation and apoptosis are crucial markers of cancer metastasis and invasive properties. To explore whether the stable SIO has much better effect on inhibiting the proliferation of A549 and H1299 cells, MTT and CCK-8 assays (Supplementary Figure 1) were conducted to investigate the anti-proliferative effect in PBS, FITC, stable SIO and linear SIO treated groups. […] It was worth noting that the anti-proliferative effect of SIO was in a time-dependent manner, which was significant at 48 hours (54%), and was peaked at 72 hours (70%).
Figure 6 The strong cell penetration of stable SIO in A549 or H1299 cells inhibited cell proliferation and induced cell apoptosis FITC-Annexin V and propidium iodide (PI) containing apoptosis assay on A549 or H1299 cells treated with PBS (as blank), FITC (5 μM), linear SIO (5 μM) and stable SIO (5 μM) for 72 hours. (A and D) Apoptotic cells stained with Annexin V/PI were measured by flow cytometry. (B and E) The statistic results of cell apoptosis by flow cytometry. […] Percentage cell viability of the treated cells is calculated relative to that of PBS treated cells (with arbitrarily assigned 100% viability). […]
Cell viability was measured using Cell Counting The plates were processed as described above, and the Kit-8 (CCK-8, Sigma, St. Louis, MO, USA) following the OD450 of the supernatant was measured. […]

Structure (SMILES): O=C1OC2(c3ccc(O)cc3Oc3cc(O)ccc32)c2ccc(N=C=S)cc21 [FITC]
- delivery (permeability) efficiency: ratio of fluorescent cell counts to total cell counts (A549 cells): 5.82 ± 0.95%
- inhibition of cell growth (in words) (A549 and H1299 cells): no obvious inhibition
